Values quoted from earlier work as cited in patent US10485768B2, “Treatment for glioblastoma” (SignPath Pharma Inc., priority 2015, dated 2019).

Key:
C6 implant rat glioma = C6 implant rat glioma model
human glioma U87 cells = settings: U87 cells xenografted into athymic mice
[1] = system: human primary and recurrent GBM cell lines

COc1cc(/C=C/C(=O)CC(=O)/C=C/c2ccc(O)c(OC)c2)ccc1O [Curcumin, diferuloylmethane]
brain tumor volume (C6 implant rat glioma): reduction in brain tumor volume
growth of xenografted tumor cells (human glioma U87 cells): suppress growth
cell growth [1]: reduced cell growth
